Results published in patent publication US11358863B2, “Method and composition of humidity-controlled generation of chlorine dioxide in polymers and superabsorbent hydrogels” (priority 2017, dated 2022).

Experiments:
Type in all cases: cell-based
[1] = tested on: Geobacillus stearothermophilus 7953 spores; assay: Clamshell package with chlorite/HMS absorbent pad in humid desiccator: autoclave sterility test strip; conditions: gaseous ClO2 about 25-50 ppm after 24 hours, 89% RH, 35° C.
Excerpt: (§1) We tested a clamshell package made of plastic (commonly PLA or polyethylene terephthalate (PET)), typical of the packaging used to contain fresh produce or berries as sold in supermarkets, convenience stores, and other grocery stores. These clamshell packages have vent holes that allow the free-flow exchange of gases between the interior of the package and its surrounding environment.
A beaker with two ClO2 indicator test strips (high range, 0-500 ppm), one Geobacillus stearothermophilus 7953 autoclave sterility test strip and one Bacillus atrophaeus ethylene oxide gas sterility test strip, was placed inside the clamshell package. A piece of blue material comprising non-woven textiles and superabsorbent hydrogel, characteristic of a common disposable diaper, was cut into a 3×1 inch rectangle. Dry sodium chlorite and dry HMS were placed on spatially separate regions of the material. The blue absorbent pad was sprayed with a small amount of water, and then folded in half. The entire clamshell package (containing the indicator strips, microbial test strips, and blue pad with reactive reagents) was placed inside a […] The entire desiccator assembly, containing the salt solution in the bottom and the clamshell package above the solution on a perforated platform, was placed inside an incubator at 35° C., which re-equilibrated and increased RH to 89%. […]

[2] = tested on: mold on cotton-based parachute sleeve; assay: Mold growth on moldy cotton parachute sleeve sample on Potato Dextrose Agar after ClO2 treatment; conditions: 10 mL of 100 ppm ClO2 solution, mixed intermittently over 20 minutes, quenched; stored at 30° C. for 5 days
Description: Dry reagents of HMS and chlorite ion were added to distilled de-ionized water to produce chlorine dioxide. A cotton-based parachute sleeve that is characteristically used to hold and release parachutes during jumps and to store folded parachutes after jumps was chosen for use. […] Approximately 1×1 in^2 was cut from a parachute sleeve and placed using sterile forceps into a Petri dish of sterile Potato Dextrose Agar (PDA) with a few drops of sterile water. […] A 1×1 in^2 sample was removed from the moldy dish using a sterile technique and placed in a new sterile Petri dish of PDA with sterile water. A second 1×1 in^2 sample was placed in a plastic pouch with 10 mL of 100 ppm ClO2 solution and mixed in a paddle-blender for 2 minutes intermittently over a 20 minute period. At 20 min, reductant was added to quench any excess ClO2, and the sample was placed on a fresh Petri dish of PDA. Both samples were stored at 30° C. for 5 days.

[3] = tested on: Bacillus atrophaeus spores; assay: Clamshell package with chlorite/HMS absorbent pad in humid desiccator: ethylene oxide gas sterility test strip; conditions: gaseous ClO2 about 25-50 ppm after 24 hours, 89% RH, 35° C.
Excerpt: as §1
A beaker with two ClO2 indicator test strips (high range, 0-500 ppm), one Geobacillus stearothermophilus 7953 autoclave sterility test strip and one Bacillus atrophaeus ethylene oxide gas sterility test strip, was placed inside the clamshell package. A piece of blue material comprising non-woven textiles and superabsorbent hydrogel, characteristic of a common disposable diaper, was cut into a 3×1 inch rectangle. Dry sodium chlorite and dry HMS were placed on spatially separate regions of the material. The blue absorbent pad was sprayed with a small amount of water, and then folded in half. The entire clamshell package (containing the indicator strips, microbial test strips, and blue pad with reactive reagents) was placed inside a desiccator charged with […] The entire desiccator assembly, containing the salt solution in the bottom and the clamshell package above the solution on a perforated platform, was placed inside an incubator at 35° C., which re-equilibrated and increased RH to 89%. […]

[4] = tested on: spores of Bacillus cereus; assay: Microbiological validation of aqueous ClO2 using Bacillus cereus spores, serial dilutions and plate-counting on Nutrient Agar; conditions: dilutions 1-10^-6, NA plates 18 hours at 37° C.

In the case of `[O][Cl+][O-]` [ClO2, chlorine dioxide], the “microbial growth of G. stearothermophilus indicator test strip” value [1] is reported as “negative for microbial growth”, the “mold growth on cotton sleeve sample and PDA” value [2] is reported as “no signs of mold growth” and the “microbial growth of B. atrophaeus indicator test strip” value [3] is reported as “negative for microbial growth”. The “growth of B. cereus from inoculated protective garment fabric” value ([4]; 10 microliter inoculum on 1×1 in^2 fabric, 100 ppm ClO2 solution, paddle-blender 15 min, quenched) was “no discernible growth” and the “colonies on NA plates (plate-counts)” value ([4]; B. cereus spore inoculum in 10 mL of 100 ppm aqueous ClO2 solution, paddle-stomacher 15 min, quenched with reductant) was “no discernible colonies”.
